According to ChEMBL document CHEMBL3351354, “From the covalent linkage of drugs to novel inhibitors of ribonucleotide reductase: synthesis and biological evaluation of valproic esters of 3'-C-methyladenosine” (Bioorg Med Chem Lett, 2014):
Activity calls are given as the source filed them. No cut-off for these calls is given here.

What was measured:
[1] = system: HL-60; assay: Induction of apoptosis in human HL60 cells after 24 to 48 hrs by acridine orange and ethidium bromide staining based fluorescence microscopy; type: functional, cell-based
[2] = Growth inhibition of human HL60 cells after 48 hrs by MTT assay; type: functional, cell-based, HL-60; details: Homo sapiens, HL-60, 48 h; read-out: IC50
[3] = system: K562; assay: Growth inhibition of human K562 cells after 48 hrs by MTT assay; type: functional, cell-based; details: Homo sapiens, K562, 48 h; read-out: IC50
[4] = system: HuT78; assay: Growth inhibition of human HUT78 cells after 48 hrs by MTT assay; type: functional, cell-based; details: Homo sapiens, HuT78, 48 h; read-out: IC50
[5] = system: HT-29; assay: Growth inhibition of human HT-29 cells after 48 hrs by MTT assay; type: functional, cell-based; details: Homo sapiens, HT-29, 48 h; read-out: IC50
[6] = system: MCF7; assay: Growth inhibition of human MCF7 cells after 48 hrs by MTT assay; type: functional, cell-based; details: Homo sapiens, MCF7, 48 h; read-out: IC50
[7] = system: HeLa; assay: Growth inhibition of human HeLa cells after 48 hrs by MTT assay; type: functional, cell-based; details: Homo sapiens, HeLa, 48 h; read-out: IC50
[8] = Growth inhibition of human Caco2 cells after 48 hrs by MTT assay; type: functional, cell-based, Caco-2; details: Homo sapiens, Caco-2, 48 h; read-out: IC50
[9] = biological target: T1, Histone deacetylase (Homo sapiens) (UniProt Q13547+O15379+Q9UBN7+Q92769+Q9UQL6+Q8WUI4+Q9BY41+Q96DB2+P56524+Q9UKV0+Q969S8); assay: Inhibition of HDAC in human HL60 cells assessed as increase in histone H3 acetylation at 10 and 100 uM after 24 hrs by Western blotting method; type: cell-based; details: HL-60
[10] = system: HL-60; assay: Induction of cell cycle arrest in human HL60 cells assessed as accumulation at G1 phase at 50 uM after 24 hrs by propidium iodide staining based flow cytometry (reference value: 32%); type: functional
[11] = system: HL-60; assay: Induction of cell cycle arrest in human HL60 cells assessed as accumulation at S phase at 50 uM after 24 hrs by propidium iodide staining based flow cytometry (reference value: 54%); type: functional
[12] = system: HL-60; assay: Induction of cell cycle arrest in human HL60 cells assessed as accumulation at G2M phase at 50 uM after 24 hrs by propidium iodide staining based flow cytometry (reference value: 12%); type: functional
[13] = biological target: T1, Histone deacetylase (Homo sapiens); assay: Inhibition of HDAC in human HL60 cells assessed as increase in p21 expression at 50 uM after 24 hrs by flow cytometry; type: cell-based; details: HL-60
[14] = system: HL-60; assay: Induction of ROS generation in human HL60 cells at 2 and 5 mM after 24 hrs by DCFH-DA staining based flow cytometry; type: functional, cell-based
[15] = Half life in pH 7.4 isotonic sodium phosphate buffer at 37 degC by HPLC-DAD-ESI-MS method; type: physicochemical
[16] = Half life in RPMI-1640 medium containing 10% fetal calf serum assessed as compound disappearance by HPLC-DAD-ESI-MS method; type: ADME, Bos taurus; details: cattle
[17] = biological target: T2, Ribonucleotide reductase (Homo sapiens) (UniProt P23921+Q7LG56); assay: Inhibition of ribonucleotide reductase in human HL60 cells assessed as intracellular dNTP pools level at 50 uM after 1 hr by HPLC method; type: cell-based; details: HL-60
[18] = biological target: T2, Ribonucleotide reductase (Homo sapiens); assay: Inhibition of human recombinant ribonucleotide reductase at 0.1 mM; type: protein-complex assay
[19] = Cytotoxicity against human HL60 cells after 24 to 48 hrs by trypan blue dye exclusion method; type: functional, cell-based; details: HL-60
[20] = system: HL-60; assay: Cytotoxicity against human HL60 cells at 20 to 100 uM after 24 to 48 hrs in presence of 2 mM VPA by trypan blue dye exclusion method; type: functional, cell-based
[21] = system: HL-60; assay: Cytotoxicity against human HL60 cells at 20 to 100 uM after 24 to 48 hrs in presence of 1 mM VPA by trypan blue dye exclusion method; type: functional, cell-based
[22] = system: HL-60; assay: Induction of apoptosis in human HL60 cells at 20 uM in presence of 2 mM VPA after 24 to 48 hrs by acridine orange and ethidium bromide staining based fluorescence microscopy; type: functional
[23] = system: HL-60; assay: Induction of apoptosis in human HL60 cells at 20 uM in presence of 1 mM VPA after 24 to 48 hrs by acridine orange and ethidium bromide staining based fluorescence microscopy; type: functional, cell-based
[24] = system: HL-60; assay: Induction of cell cycle arrest in human HL60 cells assessed as accumulation at G1 phase at 20 uM after 24 hrs by propidium iodide staining based flow cytometry (reference value: 32%); type: functional
[25] = system: HL-60; assay: Induction of cell cycle arrest in human HL60 cells assessed as accumulation at S phase at 20 uM after 24 hrs by propidium iodide staining based flow cytometry (reference value: 54%); type: functional
[26] = system: HL-60; assay: Induction of cell cycle arrest in human HL60 cells assessed as accumulation at G2M phase at 20 uM after 24 hrs by propidium iodide staining based flow cytometry (reference value: 12%); type: functional
[27] = system: HL-60; assay: Induction of cell cycle arrest in human HL60 cells assessed as accumulation at G1 phase at 20 uM in presence of 2 mM VPA after 24 hrs by propidium iodide staining based flow cytometry (reference value: 32%); type: functional
[28] = system: HL-60; assay: Induction of cell cycle arrest in human HL60 cells assessed as accumulation at S phase at 20 uM in presence of 2 mM VPA after 24 hrs by propidium iodide staining based flow cytometry (reference value: 54%); type: functional
[29] = system: HL-60; assay: Induction of cell cycle arrest in human HL60 cells assessed as accumulation at G2M phase at 20 uM in presence of 2 mM VPA after 24 hrs by propidium iodide staining based flow cytometry (reference value: 12%); type: functional
[30] = system: HL-60; assay: Induction of cell cycle arrest in human HL60 cells assessed as accumulation at G1 phase at 100 uM after 24 hrs by propidium iodide staining based flow cytometry (reference value: 32%); type: functional
[31] = system: HL-60; assay: Induction of cell cycle arrest in human HL60 cells assessed as accumulation at S phase at 100 uM after 24 hrs by propidium iodide staining based flow cytometry (reference value: 54%); type: functional
[32] = system: HL-60; assay: Induction of cell cycle arrest in human HL60 cells assessed as accumulation at G2M phase at 100 uM after 24 hrs by propidium iodide staining based flow cytometry (reference value: 12%); type: functional
[33] = biological target: T2, Ribonucleotide reductase (Homo sapiens); assay: Inhibition of ribonucleotide reductase in human HL60 cells assessed as intracellular dNTP pools level at 0.3 mM after 1 hr by HPLC method; type: cell-based; details: HL-60
[34] = biological target: T2, Ribonucleotide reductase (Homo sapiens); assay: Inhibition of human recombinant ribonucleotide reductase at 1.2 mM; type: protein-complex assay
[35] = biological target: T2, Ribonucleotide reductase (Homo sapiens); assay: Inhibition of human recombinant ribonucleotide reductase at 1.2 mM in presence of 1 mM ATP; type: protein-complex assay
[36] = biological target: T2, Ribonucleotide reductase (Homo sapiens); assay: Inhibition of human recombinant ribonucleotide reductase at 1.2 mM in presence of 3 mM ATP; type: protein-complex assay
[37] = biological target: T2, Ribonucleotide reductase (Homo sapiens); assay: Inhibition of human recombinant ribonucleotide reductase at 1.2 mM in presence of dGTP; type: protein-complex assay
[38] = biological target: T3, Ribonucleotide reductase (Homo sapiens, UniProt P23921+Q7LG56); assay: Competitive inhibition of human recombinant ribonucleotide reductase in presence of varying levels of ATP by Dixon plot; type: protein-complex assay
T3 sequence (P23921 whole entry): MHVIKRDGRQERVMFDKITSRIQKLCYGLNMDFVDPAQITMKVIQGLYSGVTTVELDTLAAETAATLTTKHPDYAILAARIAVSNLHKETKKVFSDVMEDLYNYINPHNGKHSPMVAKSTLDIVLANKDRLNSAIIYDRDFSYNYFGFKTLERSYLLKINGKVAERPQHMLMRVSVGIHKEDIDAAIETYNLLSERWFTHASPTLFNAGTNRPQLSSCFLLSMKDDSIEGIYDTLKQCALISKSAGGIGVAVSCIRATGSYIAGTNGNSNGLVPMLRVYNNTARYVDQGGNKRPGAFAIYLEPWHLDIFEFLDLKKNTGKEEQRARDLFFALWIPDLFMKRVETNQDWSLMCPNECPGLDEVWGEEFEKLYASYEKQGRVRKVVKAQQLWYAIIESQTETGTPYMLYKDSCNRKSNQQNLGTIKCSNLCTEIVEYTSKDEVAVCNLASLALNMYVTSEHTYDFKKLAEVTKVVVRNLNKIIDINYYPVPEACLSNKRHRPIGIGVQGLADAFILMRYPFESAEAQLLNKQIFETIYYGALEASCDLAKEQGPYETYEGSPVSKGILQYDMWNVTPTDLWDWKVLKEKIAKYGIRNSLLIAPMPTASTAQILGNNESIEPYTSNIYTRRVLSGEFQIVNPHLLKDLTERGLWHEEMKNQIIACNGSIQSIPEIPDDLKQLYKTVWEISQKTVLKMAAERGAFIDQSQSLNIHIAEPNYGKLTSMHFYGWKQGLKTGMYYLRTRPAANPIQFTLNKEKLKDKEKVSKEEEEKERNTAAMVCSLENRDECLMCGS
T3 sequence (Q7LG56 whole entry): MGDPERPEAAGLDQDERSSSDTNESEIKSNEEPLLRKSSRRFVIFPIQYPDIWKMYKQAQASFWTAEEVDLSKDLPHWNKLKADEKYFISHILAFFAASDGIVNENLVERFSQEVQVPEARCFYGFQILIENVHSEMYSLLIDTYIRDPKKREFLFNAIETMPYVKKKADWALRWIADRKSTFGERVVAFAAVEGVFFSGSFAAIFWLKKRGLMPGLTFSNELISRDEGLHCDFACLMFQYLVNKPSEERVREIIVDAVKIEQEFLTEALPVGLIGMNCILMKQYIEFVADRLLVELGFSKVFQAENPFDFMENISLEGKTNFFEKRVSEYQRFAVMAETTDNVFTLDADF

[39] = Homo sapiens, HL-60, read-out: AC50

Row | IC50 [3] | IC50 [5] | IC50 [6] | IC50 [7] | inhibition [9] | half-life [15] | half-life [16] | Compound | AC50 [1, 39] | IC50 [2] | IC50 [4] | IC50 [8] | further results
1 | 51.9 µM | 54.6 µM | 57.8 µM | 54.4 µM | inactive | > 72 h | > 72 h | CCCC(CCC)C(=O)OC[C@H]1O[C@@H](n2cnc3c(N)ncnc32)[C@H](OC(=O)C(CCC)CCC)[C@]1(C)O | 140 µM | 16.3 µM | 30 µM | 55.1 µM | Activity [10]: 71%; Activity [11]: 29%; Activity [12]: 0%; inhibition [13]: inactive; Activity [14]: inactive; inhibition [17]: inactive; inhibition [18]: inactive
2 | 9.4 µM | 26.1 µM | 22.4 µM | 23.3 µM | – | – | 43.5 h | C[C@@]1(O)[C@@H](CO)O[C@@H](n2cnc3c(N)ncnc32)[C@@H]1O | 75 µM | 15.6 µM | 17.3 µM | 24.3 µM | IC50 [19]: 15 µM; Activity [20]: Active; Activity [21]: inactive; Activity [22]: 90%; Activity [23]: Active; Activity [24]: 31%; Activity [25]: 60%; Activity [26]: 9%; Activity [27]: 28%; Activity [28]: 61%; Activity [29]: 11%
3 | 200 µM | > 200 µM | > 200 µM | > 200 µM | inactive | > 72 h | > 72 h | CCCC(CCC)C(=O)OC[C@H]1O[C@@H](n2cnc3c(N)ncnc32)[C@H](O)[C@]1(C)O | – | 67.1 µM | 142 µM | > 200 µM | AC50 ([1]; hl-60): Not Active; Activity [30]: 42%; Activity [31]: 44%; Activity [32]: 14%; inhibition [33]: Active; inhibition [34]: Active; inhibition [35]: Active; inhibition [36]: inactive; inhibition [37]: inactive; Ki [38]: 400 µM
